From ChEMBL document CHEMBL3774333, “Identification of SNAIL1 Peptide-Based Irreversible Lysine-Specific Demethylase 1-Selective Inactivators” (J Med Chem, 2016)
Blank lines part the entries; values can stand above or below the compound they belong to. Active and inactive are the calls of the source. No cut-off for these calls is given here.

Tests used:
[1] = target: T1, Lysine-specific histone demethylase 1A (Homo sapiens, UniProt O60341); assay: Inhibition of LSD1 in human HeLa cells assessed as H3K4me2/H3 ratio at 20 uM after 24 hrs by Western blot analysis in absence of fetal bovine serum; assay type: cell-based
HeLa = assay: Antiproliferative activity against human HeLa cells assessed as inhibition of cell viability at 12.5 to 100 uM treated for 24 hrs measured after 48 hrs by alamar blue assay in absence of fetal bovine serum; assay type: functional, cell-based
[2] = target: T1, Lysine-specific histone demethylase 1A; assay: biochemical
Description: Inhibition of full length N-terminal His-tagged human recombinant LSD1 (1 to 852 residues) expressed in Escherichia coli BL21(DE3) cells using H3K4me2 peptide as substrate preincubated for 5 mins followed by substrate addition measured for 30 mins by peroxidase coupled assay

[3] = target: T1, Lysine-specific histone demethylase 1A; assay: Inhibition of LSD1 in human HeLa cells assessed as H3K4me2/H3 ratio at 5 uM after 24 hrs by Western blot analysis in absence of fetal bovine serum; assay type: cell-based
[4] = target: T2, Amine oxidase [flavin-containing] B (Homo sapiens, UniProt P27338); assay: biochemical
T2 sequence (P27338 whole entry): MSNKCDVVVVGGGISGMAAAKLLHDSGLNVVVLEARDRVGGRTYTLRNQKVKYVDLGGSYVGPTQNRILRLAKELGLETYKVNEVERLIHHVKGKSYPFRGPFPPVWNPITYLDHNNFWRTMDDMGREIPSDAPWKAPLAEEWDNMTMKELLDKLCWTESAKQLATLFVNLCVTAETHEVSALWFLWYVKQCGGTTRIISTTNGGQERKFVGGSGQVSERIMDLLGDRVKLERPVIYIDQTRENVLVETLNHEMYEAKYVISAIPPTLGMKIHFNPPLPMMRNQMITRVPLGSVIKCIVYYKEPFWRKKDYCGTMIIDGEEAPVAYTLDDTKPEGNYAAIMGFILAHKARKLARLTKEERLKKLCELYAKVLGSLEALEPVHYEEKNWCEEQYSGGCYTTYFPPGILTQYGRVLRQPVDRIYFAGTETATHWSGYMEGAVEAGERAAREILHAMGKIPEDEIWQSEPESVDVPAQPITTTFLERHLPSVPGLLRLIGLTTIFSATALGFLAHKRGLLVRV
Description: Inhibition of human recombinant MAO-B expressed in baculovirus infected BTI insect cells using (4S)-4,5-dihydro-2-(6-hydroxybenzothiazolyl)-4-thiazolecarboxylic acid as substrate incubated for 60 mins by MAO-Glo assay

Homo sapiens [5] = species: Homo sapiens
[6] = target: T3, Lysine-specific demethylase 5A (Homo sapiens, UniProt P29375); assay: Inhibition of JARID1A in human HeLa cells assessed as H3K4me3/H3 ratio at 20 uM after 24 hrs by Western blot analysis in absence of fetal bovine serum; assay type: cell-based
[7] = target: T4, Lysine-specific histone demethylase 2 (Homo sapiens, UniProt Q8NB78); assay: biochemical
T4 sequence (Q8NB78 whole entry): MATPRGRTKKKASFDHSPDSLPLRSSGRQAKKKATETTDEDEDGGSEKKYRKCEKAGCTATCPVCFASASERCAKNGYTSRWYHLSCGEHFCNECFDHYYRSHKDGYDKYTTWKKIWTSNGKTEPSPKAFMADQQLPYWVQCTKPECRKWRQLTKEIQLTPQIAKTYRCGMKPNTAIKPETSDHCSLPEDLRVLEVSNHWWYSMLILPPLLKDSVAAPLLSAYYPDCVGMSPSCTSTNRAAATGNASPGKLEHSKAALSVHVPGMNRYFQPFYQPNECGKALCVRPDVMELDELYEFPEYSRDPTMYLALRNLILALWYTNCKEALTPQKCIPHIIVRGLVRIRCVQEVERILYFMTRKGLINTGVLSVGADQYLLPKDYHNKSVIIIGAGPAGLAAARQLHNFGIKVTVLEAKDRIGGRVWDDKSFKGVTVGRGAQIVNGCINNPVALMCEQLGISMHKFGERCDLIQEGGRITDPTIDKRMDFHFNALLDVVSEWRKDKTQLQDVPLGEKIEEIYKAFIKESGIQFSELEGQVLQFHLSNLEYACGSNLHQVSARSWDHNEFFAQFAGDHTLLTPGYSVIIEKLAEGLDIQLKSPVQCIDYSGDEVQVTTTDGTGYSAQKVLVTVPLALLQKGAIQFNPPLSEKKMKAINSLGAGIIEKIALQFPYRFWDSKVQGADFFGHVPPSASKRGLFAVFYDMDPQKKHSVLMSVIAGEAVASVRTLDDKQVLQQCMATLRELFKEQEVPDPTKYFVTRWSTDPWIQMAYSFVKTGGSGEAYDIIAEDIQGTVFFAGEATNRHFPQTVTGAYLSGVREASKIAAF
Description: Inhibition of full length N-terminal His-tagged human LSD2 (1 to 822 residues) expressed in Escherichia coli BL21(DE3) cells using H3K4me2 peptide substrate by MALDI-TOF mass spectrometric analysis

[8] = target: T5, Lysine-specific histone demethylase 2 (Homo sapiens) (UniProt Q8NB78); assay: Inhibition of LSD2 in human HeLa cells assessed as H3K4me1/H3 ratio at 10 uM after 24 hrs by Western blot analysis in absence of fetal bovine serum; assay type: cell-based
T5 sequence (whole entry): T4 sequence (Q8NB78 whole entry)

[9] = target: T6, Amine oxidase [flavin-containing] A (Homo sapiens, UniProt P21397); assay: biochemical
T6 sequence (P21397 whole entry): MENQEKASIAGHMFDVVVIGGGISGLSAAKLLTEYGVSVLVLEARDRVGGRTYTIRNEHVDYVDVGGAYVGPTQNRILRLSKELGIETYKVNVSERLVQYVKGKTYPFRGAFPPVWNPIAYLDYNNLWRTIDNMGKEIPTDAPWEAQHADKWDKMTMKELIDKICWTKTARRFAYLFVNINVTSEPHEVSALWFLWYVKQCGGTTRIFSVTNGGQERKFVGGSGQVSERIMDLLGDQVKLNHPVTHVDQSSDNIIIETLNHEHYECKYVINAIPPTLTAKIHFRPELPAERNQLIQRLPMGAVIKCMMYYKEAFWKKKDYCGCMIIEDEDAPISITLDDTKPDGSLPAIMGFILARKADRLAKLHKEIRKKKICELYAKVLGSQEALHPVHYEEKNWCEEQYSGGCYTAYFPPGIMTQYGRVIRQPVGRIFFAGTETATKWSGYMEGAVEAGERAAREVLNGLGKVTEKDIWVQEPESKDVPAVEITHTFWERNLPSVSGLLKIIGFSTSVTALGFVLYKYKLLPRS
Description: Inhibition of human recombinant MAO-A expressed in baculovirus infected BTI insect cells using (4S)-4,5-dihydro-2-(6-hydroxybenzothiazolyl)-4-thiazolecarboxylic acid as substrate incubated for 60 mins by MAO-Glo assay

[10] = target: T1, Lysine-specific histone demethylase 1A; assay: Inhibition of LSD1 in human HeLa cells assessed as H3K4me2/H3 ratio at 10 uM after 24 hrs by Western blot analysis in absence of fetal bovine serum; assay type: cell-based
[11] = target: T5, Lysine-specific histone demethylase 2 (Homo sapiens); assay: Inhibition of LSD2 in human HeLa cells assessed as H3K4me1/H3 ratio at 20 uM after 24 hrs by Western blot analysis in absence of fetal bovine serum; assay type: cell-based
Homo sapiens [12] = species: Homo sapiens; remark: listed apart in the source
Homo sapiens [13] = species: Homo sapiens; remark: listed apart in the source
[14] = target: T3, Lysine-specific demethylase 5A; assay: Inhibition of JARID1A in human HeLa cells assessed as H3K4me3/H3 ratio at 10 uM after 24 hrs by Western blot analysis in absence of fetal bovine serum; assay type: cell-based
[15] = target: T5, Lysine-specific histone demethylase 2 (Homo sapiens); assay: Inhibition of LSD2 in human HeLa cells assessed as H3K4me1/H3 ratio at 5 uM after 24 hrs by Western blot analysis in absence of fetal bovine serum; assay type: cell-based
Homo sapiens [16] = species: Homo sapiens; remark: listed apart in the source
[17] = target: T3, Lysine-specific demethylase 5A
Description: Inhibition of JARID1A (unknown origin) using H3K4me3 peptide substrate preincubated for 5 mins followed by substrate addition by MALDI-TOF mass spectrometric analysis

[18] = target: T1, Lysine-specific histone demethylase 1A; assay: Inhibition of LSD1 in human HeLa cells assessed as increase in H3K4me2 level after 24 hrs by Western blot analysis in absence of fetal bovine serum; assay type: cell-based
[19] = target: T1, Lysine-specific histone demethylase 1A; conditions: 22 h
Description: Drug metabolism assessed as LSD1 (unknown origin)-mediated compound-FAD adduct formation after 22 hrs by MALDI-TOF mass spectrometric analysis

[20] = target: T3, Lysine-specific demethylase 5A; assay: Inhibition of JARID1A in human HeLa cells assessed as H3K4me3/H3 ratio at 5 uM after 24 hrs by Western blot analysis in absence of fetal bovine serum; assay type: cell-based

T3 sequence (P29375 whole entry): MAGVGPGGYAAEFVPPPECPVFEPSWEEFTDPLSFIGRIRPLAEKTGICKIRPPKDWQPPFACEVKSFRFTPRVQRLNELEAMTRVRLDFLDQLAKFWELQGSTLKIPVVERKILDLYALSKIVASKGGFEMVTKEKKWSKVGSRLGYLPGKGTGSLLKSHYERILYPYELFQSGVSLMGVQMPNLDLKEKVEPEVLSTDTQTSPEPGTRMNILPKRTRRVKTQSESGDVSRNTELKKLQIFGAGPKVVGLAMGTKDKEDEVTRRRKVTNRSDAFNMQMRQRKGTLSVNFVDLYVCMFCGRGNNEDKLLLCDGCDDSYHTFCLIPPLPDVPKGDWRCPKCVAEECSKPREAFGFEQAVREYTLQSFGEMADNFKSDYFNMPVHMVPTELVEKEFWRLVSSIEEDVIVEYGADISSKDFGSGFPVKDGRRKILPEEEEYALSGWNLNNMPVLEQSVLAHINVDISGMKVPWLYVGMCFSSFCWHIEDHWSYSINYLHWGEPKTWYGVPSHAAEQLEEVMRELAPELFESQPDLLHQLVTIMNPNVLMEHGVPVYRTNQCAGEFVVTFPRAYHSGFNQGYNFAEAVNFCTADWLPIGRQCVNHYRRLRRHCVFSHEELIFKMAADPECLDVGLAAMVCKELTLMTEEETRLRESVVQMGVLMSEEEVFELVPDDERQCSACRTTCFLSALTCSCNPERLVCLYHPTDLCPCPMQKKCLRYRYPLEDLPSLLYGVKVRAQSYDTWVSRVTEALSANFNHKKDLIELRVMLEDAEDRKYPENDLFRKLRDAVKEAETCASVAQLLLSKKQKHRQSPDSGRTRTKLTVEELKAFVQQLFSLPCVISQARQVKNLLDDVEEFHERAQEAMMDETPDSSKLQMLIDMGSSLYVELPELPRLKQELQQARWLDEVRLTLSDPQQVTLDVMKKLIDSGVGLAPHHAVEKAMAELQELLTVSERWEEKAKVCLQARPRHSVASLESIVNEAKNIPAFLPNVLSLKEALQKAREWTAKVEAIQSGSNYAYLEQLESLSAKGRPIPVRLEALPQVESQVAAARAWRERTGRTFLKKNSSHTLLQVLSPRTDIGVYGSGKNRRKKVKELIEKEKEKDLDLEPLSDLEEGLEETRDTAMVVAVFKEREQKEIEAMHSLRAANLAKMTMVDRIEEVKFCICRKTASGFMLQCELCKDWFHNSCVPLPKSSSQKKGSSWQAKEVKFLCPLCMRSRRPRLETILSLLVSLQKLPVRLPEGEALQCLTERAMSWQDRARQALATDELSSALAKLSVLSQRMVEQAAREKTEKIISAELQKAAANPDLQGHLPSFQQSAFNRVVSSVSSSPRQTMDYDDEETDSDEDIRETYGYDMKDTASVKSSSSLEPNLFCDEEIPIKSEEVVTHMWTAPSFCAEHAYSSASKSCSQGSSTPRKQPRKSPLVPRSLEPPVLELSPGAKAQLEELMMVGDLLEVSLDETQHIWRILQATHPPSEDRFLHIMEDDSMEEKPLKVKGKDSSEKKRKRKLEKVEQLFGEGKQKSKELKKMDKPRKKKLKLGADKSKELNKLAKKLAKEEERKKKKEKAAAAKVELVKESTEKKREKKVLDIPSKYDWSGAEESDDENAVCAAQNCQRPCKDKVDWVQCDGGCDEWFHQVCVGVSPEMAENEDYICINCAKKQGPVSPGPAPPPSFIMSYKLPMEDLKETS

- Ratio [1]: 1.06
Compound: CC(C)C[C@H](NC(=O)[C@H](CCCCN)NC(=O)[C@H](CO)NC(=O)[C@@H](CCCNC(=N)N)NC(=O)[C@H]1CCCN1)C(=O)N[C@H](C(=O)N[C@@H](CCCNC(=N)N)C(=O)N[C@@H](CCCCNC(=O)[C@@H](CCCNC(=N)N)NC(=O)[C@@H](CCCNC(=N)N)NC(=O)[C@@H](CCCNC(=N)N)NC(=O)[C@@H](CCCNC(=N)N)NC(=O)[C@@H](CCCNC(=N)N)NC(=O)[C@@H](CCCNC(=N)N)NC(=O)[C@@H](CCCNC(=N)N)NC(=O)[C@@H](N)CCCNC(=N)N)C(=O)N1CCC[C@H]1C(=O)N[C@@H](CO)C(=O)N[C@@H](CC(=O)O)C(=O)N1CCC[C@H]1C(=O)N[C@@H](CC(N)=O)C(=O)N[C@@H](CCCNC(=N)N)C(=O)N[C@@H](CCCCN)C(=O)N1CCC[C@H]1C(=O)N[C@H](CC(N)=O)C(=O)N[C@@H](Cc1ccc(O)cc1)C(=O)N[C@@H](CO)C(=O)N[C@@H](CCC(N)=O)C(N)=O)C(C)C
- inhibition (HeLa): inactive

- IC50 [2]: 17 µM
Compound: C#CCN(C)CCC[C@H](NC(=O)[C@H](CO)NC(=O)[C@H](CCCNC(=N)N)NC(=O)[C@@H]1CCCN1)C(=O)N[C@@H](CC(C)C)C(=O)N[C@H](C(=O)N[C@@H](CCCNC(=N)N)C(=O)N[C@@H](CCCCN)C(=O)N1CCC[C@H]1C(=O)N[C@@H](CO)C(=O)N[C@@H](CC(=O)O)C(=O)N1CCC[C@H]1C(=O)N[C@@H](CC(N)=O)C(=O)N[C@@H](CCCNC(=N)N)C(=O)N[C@@H](CCCCN)C(=O)N1CCC[C@H]1C(=O)N[C@@H](CC(N)=O)C(=O)N[C@@H](Cc1ccc(O)cc1)C(=O)N[C@@H](CO)C(=O)N[C@@H](CCC(N)=O)C(N)=O)C(C)C

- Ratio [3]: 1.29
- IC50 [4]: 30 µM
- Ratio [6]: 1.01
- IC50 [7]: 23.2 µM
- Ratio [8]: 0.99
- Ratio [1]: 2.08
- IC50 [9]: > 30 µM
- Ratio [10]: 1.73
- Ratio [11]: 1.05
- IC50 [2]: 0.29 µM
- Ratio [14]: 0.98
- Ratio [15]: 0.96
- IC50 [17]: 12.9 µM
- inhibition [18]: Dose-dependent effect
- Drug metabolism [19]: metabolite_detected
- Ratio [20]: 1.03
Compound: CC(C)C[C@@H](NC(=O)[C@@H](CCCNN)NC(=O)[C@@H](CO)NC(=O)[C@@H](CCCNC(=N)N)NC(=O)[C@H]1CCCN1)C(=O)N[C@@H](C(=O)N[C@H](CCCNC(=N)N)C(=O)N[C@@H](CCCCNC(=O)COCCOCCNC(=O)[C@@H](CCCNC(=N)N)NC(=O)[C@@H](CCCNC(=N)N)NC(=O)[C@@H](CCCNC(=N)N)NC(=O)[C@@H](CCCNC(=N)N)NC(=O)[C@@H](CCCNC(=N)N)NC(=O)[C@@H](CCCNC(=N)N)NC(=O)[C@@H](CCCNC(=N)N)NC(=O)[C@@H](N)CCCNC(=N)N)C(=O)N1CCC[C@H]1C(=O)N[C@@H](CO)C(=O)N[C@@H](CC(=O)O)C(=O)N1CCC[C@H]1C(=O)N[C@@H](CC(N)=O)C(=O)N[C@@H](CCCNC(=N)N)C(=O)N[C@@H](CCCCN)C(=O)N1CCC[C@H]1C(=O)N[C@H](CC(N)=O)C(=O)N[C@@H](Cc1ccc(O)cc1)C(=O)N[C@@H](CO)C(=O)N[C@@H](CCC(N)=O)C(N)=O)C(C)C
- Ratio IC50 (Homo sapiens [5]): > 94
- Ratio IC50 (Homo sapiens [12]): 94
- Ratio IC50 (Homo sapiens [13]): 23
- inhibition (HeLa): Active
- Ratio IC50 (Homo sapiens [16]): 16
